This note sets out measurements from ChEMBL document CHEMBL3621202, “Suppression of Hepatocellular Carcinoma by Inhibition of Overexpressed Ornithine Aminotransferase” (ACS Med Chem Lett, 2015).

For assay [1], the target named is T1, Ornithine aminotransferase, mitochondrial (Homo sapiens, UniProt P04181).
T1 sequence (P04181 whole entry): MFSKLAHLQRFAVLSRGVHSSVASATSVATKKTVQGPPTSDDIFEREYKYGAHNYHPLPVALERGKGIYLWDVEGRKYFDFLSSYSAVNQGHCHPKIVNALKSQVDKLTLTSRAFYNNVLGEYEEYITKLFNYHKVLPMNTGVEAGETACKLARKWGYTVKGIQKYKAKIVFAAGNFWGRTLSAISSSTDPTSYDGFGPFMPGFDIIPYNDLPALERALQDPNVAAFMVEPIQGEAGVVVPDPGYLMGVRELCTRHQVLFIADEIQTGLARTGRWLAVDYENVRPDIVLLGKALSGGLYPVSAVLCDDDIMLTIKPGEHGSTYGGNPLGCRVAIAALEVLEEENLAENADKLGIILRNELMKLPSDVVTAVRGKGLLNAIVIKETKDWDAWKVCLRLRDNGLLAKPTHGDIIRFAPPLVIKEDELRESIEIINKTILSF
Put plainly: Inhibition of human recombinant OAT using 1 mM alpha-ketoglutarate as substrate.

Assay [2] addresses Aspartate aminotransferase, cytoplasmic (Homo sapiens) (UniProt P17174). Put plainly: Inhibition of aspartate aminotransferase (unknown origin) at 4 mM using 5.55 mM L-aspartate as substrate.
The subject of assay [3] is HepG2. Description: Decrease in AFP secretion in human HepG2 cells at 50 ug/ml by ELISA. Format: functional, cell-based. For orientation: In an ELISA, binding on a coated surface is turned into a signal by an enzyme label.
Assay [4] deals with Mus musculus. Description: Reduction in AFP secretion in Hep3B cells xenografted Balb/C mouse serum at 1 mg/kg, po administered 3 weeks after xenograft measured 14 days after treatment by ELISA (reference value: 29155 pg/ml). Format: functional, Hep 3B2.
A further assay is filed under the species Homo sapiens. Description: Inhibition of alanine aminotransferase (unknown origin) at 4 mM using 5.55 mM L-alanine as substrate.
Assay [5] is described as follows: Antitumor activity against human Hep3B cells xenografted in Balb/C mouse assessed as tumor size at 1 mg/kg, po administered 3 weeks after xenograft measured 28 days after treatment (reference value: 24.2). It counts as functional, Hep 3B2. (In general: In xenograft studies the graft and the host belong to different species.)
Assay [6] can be described thus: Antitumor activity against human Hep3B cells xenografted in Balb/C mouse assessed as tumor size at 0.1 mg/kg, po administered 3 weeks after xenograft measured 28 days after treatment (reference value: 24.2). It counts as functional, Hep 3B2.
Assay [7] concerns Mus musculus. Put plainly: Reduction in AFP secretion in Hep3B cells xenografted Balb/C mouse serum at 0.1 mg/kg, po administered 3 weeks after xenograft measured 21 days after treatment by ELISA. Format: functional, organism-based. The note with it: Hep 3B2.
The subject of assay [8] is Mus musculus. Description: Reduction in AFP secretion in Hep3B cells xenografted Balb/C mouse serum at 1 mg/kg, po administered 3 weeks after xenograft measured 21 days after treatment by ELISA. It counts as functional, organism-based. The note with it: Hep 3B2.
Assay [9] concerns Hep 3B2. Description: Decrease in AFP secretion in human Hep3B cells at 50 ug/ml by ELISA. Format: functional, cell-based.
For assay [10], the system named is Mus musculus. Description: Reduction in AFP secretion in Hep3B cells xenografted Balb/C mouse serum at 0.1 mg/kg, po administered 3 weeks after xenograft measured 14 days after treatment by ELISA (reference value: 29155 pg/ml). It counts as functional, Hep 3B2.
Assay [11] concerns Hep 3B2. Put plainly: Effect AFP secretion in human Hep3B cells by ELISA. It counts as functional, cell-based.
Assay [12] is described as follows: Antiproliferative activity against […] cells after 48 hrs by [3H]-thymidine incorporation assay. Format: functional. On the technique in general: Dividing cells build labelled thymidine or BrdU into new DNA.
Assay [13] deals with Mus musculus. Put plainly: Reduction in AFP secretion in Hep3B cells xenografted Balb/C mouse serum at 500 ug/kg, ip administered as single dose by ELISA. The note with it: Hep 3B2. It counts as functional, organism-based.
A further assay concerns Hepa1-6. Description: Effect AFP secretion in […] cells by ELISA. It counts as functional, cell-based.
Assay [14] concerns HepG2. Description: Effect AFP secretion in human HepG2 cells by ELISA. It counts as functional, cell-based.
Assay [15] in a line: Antiproliferative activity against human Hep3B cells after 48 hrs by [3H]-thymidine incorporation assay. Format: functional, Hep 3B2.

Each structure is given as a SMILES string. Activity calls are given as the source filed them. The calls are words filed in the database; no cut-off is given here.

Sequence of Aspartate aminotransferase, cytoplasmic (Homo sapiens) (P17174 whole entry): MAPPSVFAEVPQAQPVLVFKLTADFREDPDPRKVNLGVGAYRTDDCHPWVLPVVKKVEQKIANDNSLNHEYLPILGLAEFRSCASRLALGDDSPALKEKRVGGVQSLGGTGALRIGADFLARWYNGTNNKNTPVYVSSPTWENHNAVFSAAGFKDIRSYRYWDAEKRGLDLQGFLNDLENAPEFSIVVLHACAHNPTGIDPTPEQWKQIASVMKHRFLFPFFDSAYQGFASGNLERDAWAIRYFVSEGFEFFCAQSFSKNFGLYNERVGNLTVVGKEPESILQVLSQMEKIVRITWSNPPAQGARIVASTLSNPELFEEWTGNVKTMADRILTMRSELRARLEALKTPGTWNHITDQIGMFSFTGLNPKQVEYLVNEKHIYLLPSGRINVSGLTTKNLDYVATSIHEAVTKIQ

As for `NC1C=CC=C(C(=O)O)C1` (stereo not drawn) [GABACULINE], the Ki (commonly a dissociation constant, usually derived from enzyme kinetics or from competition with a known ligand) in [1] was found to be 2.1 µM.

`N[C@H]1C[C@@H](C(=O)O)CC1=C(C(F)(F)F)C(F)(F)F`: the inhibition result (in assay [2]; in the assay filed under Homo sapiens) was “inactive” each time. Moreover, the inhibition entry in the assay on HepG2 [3], in the assay on Mus musculus [7], in the assay on Mus musculus [8] and in the assay on Hep 3B2 [9] was “Active” in each case. The Activity with Mus musculus [4] and with Mus musculus [10] was 24857 pg/mL in each case. In addition, the “fold change (FC)” value turned out to be 3.1 in assay [5] and 4.5 in [6]. Besides, the Ki in assay [1] was determined as 4.2 µM.

As to `N[C@H]1C=C(C(=O)O)CCC1` [GABACULINE], the outcome in the assay on Hep 3B2 [11], in the assay on Hepa1-6 and in the assay with HepG2 [14] was inactive. In addition, the “inhibition (INH)” value in [12] and in assay [15] was 43% each time. In addition, the inhibition entry in the assay with Mus musculus [13] is “Active”.
